These results are taken from patent US20020028938A1, “Prostaglandin endoperoxide H synthase biosynthesis inhibitors” (priority 1997, published 2002).

The structures appear in SMILES notation.

For the compound `C[Se](=O)(=O)c1ccc(-c2cnn(-c3ccc(F)cc3)c(=O)c2-c2ccc(F)cc2)cc1`, the melting point (usually the temperature, or range, at which the solid turns liquid) is 110 to 150 °C.

The compound `CS(=O)(=O)c1ccc(-c2cn[nH]c(=O)c2-c2ccc(F)cc2)cc1` [Example 11, 4-(4-Fluorophenyl)-5-[4-(methylsulfonyl)phenyl]-3(2H)-pyridazinone] registered a melting point of 255 to 256 °C.

`CS(=O)(=O)c1ccc(-c2cnn(Cc3ccccn3)c(=O)c2-c2ccc(F)cc2)cc1` [Example 27, 2-(2-Pyridylmethyl)-4-(4-fluorophenyl)-5-[4-(methylsulfonyl)phenyl]-3(2H)-pyridazinone]: the melting point was in the range of 182 to 184 °C.

As to `CS(=O)(=O)c1ccc(-c2cnn(Cc3ccncc3)c(=O)c2-c2ccc(F)cc2)cc1` [Example 28, 2-(4-Pyridylmethyl)-4-(4-fluorophenyl)-5-[4-(methylsulfonyl)phenyl]-3(2H)-pyridazinone], the melting point was 153 to 156 °C.

The compound `CS(=O)(=O)c1ccc(-c2cnn(Cc3cccnc3)c(=O)c2-c2ccc(F)cc2)cc1` [Example 29, 2-(3-Pyridylmethyl)-4-(4-fluorophenyl)-5-[4-(methylsulfonyl)phenyl]-3(2H)-pyridazinone] gave a melting point of 160 to 161 °C.

Regarding `CS(=O)(=O)c1ccc(-c2cnn(Cc3ccc4cc(F)ccc4n3)c(=O)c2-c2ccc(F)cc2)cc1` [Example 30, 2-(6-Fluoroquinolin-2-ylmethyl)-4-(4-fluorophenyl)-5-[4-(methylsulfonyl)phenyl]-3(2H)-pyridazinone], the melting point lay in the range of 116 to 119 °C.

In turn, `CCN(CC)c1ccc(C(=O)Cn2ncc(-c3ccc(S(C)(=O)=O)cc3)c(-c3ccc(F)cc3)c2=O)cc1` [Example 44, 2-(4-Diethylaminophenacyl)-4-(4-fluorophenyl)-5-[4-(methylsulfonyl)phenyl]-3(2H)-pyridazinone] had a melting point of 105 to 108 °C.

`CS(=O)(=O)c1ccc(-c2cnn(CC(=O)c3ccc(Cl)cc3)c(=O)c2-c2ccc(F)cc2)cc1` [Example 47, 2-(4-Chlorophenacyl)-4-(4-fluorophenyl)-5-[4-(methylsulfonyl)phenyl]-3(2H)-pyridazinone]: the melting point lay within 186 to 188 °C.

Regarding `CS(=O)(=O)c1ccc(-c2cnn(CC(=O)c3ccc(C#N)cc3)c(=O)c2-c2ccc(F)cc2)cc1` [Example 49, 2-(4-Cyanophenacyl)-4-(4-fluorophenyl)-5-[4-(methylsulfonyl)phenyl]-3(2H)-pyridazinone], the melting point was 188 to 189 °C.

The compound `CS(=O)(=O)c1ccc(-c2cnn(CCc3ccccc3)c(=O)c2-c2ccc(F)cc2)cc1` [Example 51, 2-Phenethyl-4-(4-fluorophenyl)-5-[4-(methylsulfonyl)phenyl]-3(2H)-pyridazinone] yielded a melting point of 170 to 171 °C.

`CS(=O)(=O)c1ccc(-c2cnn(CC(=O)c3ccc(OC(F)(F)F)cc3)c(=O)c2-c2ccc(F)cc2)cc1` [Example 55, 2-(4-Trifluoromethoxyphenacyl)-4-(4-fluorophenyl)-5-[4-(methylsulfonyl)phenyl]-3(2H)-pyridazinone] displayed a melting point of 160 to 161 °C.

`CS(=O)(=O)c1ccc(-c2cnn(CC(=O)c3csc4ccccc34)c(=O)c2-c2ccc(F)cc2)cc1` [Example 57, 2-[2-(Benzo[b]thien-3-yl)-2-oxoethyl]-4-(4-fluorophenyl)-5-[4-(methylsulfonyl)phenyl]-3(2H)-pyridazinone] yielded a melting point of 183 to 184 °C.

Regarding `CC(C)(C)C(=O)Cn1ncc(-c2ccc(S(C)(=O)=O)cc2)c(-c2ccc(F)cc2)c1=O` [Example 59, 2-(3,3-Dimethyl-2-oxobutyl)-4-(4-fluorophenyl)-5-[4-(methylsulfonyl)phenyl]-3(2H)-pyridazinone], the melting point was in the range of 168 to 170 °C.

Regarding `CS(=O)(=O)c1ccc(-c2cnn(Cc3cc4ccccc4s3)c(=O)c2-c2ccc(F)cc2)cc1` [Example 61, 2-(2-Benzo[b]thienylmethyl)-4-(4-fluorophenyl)-5-[4-(methylsulfonyl)phenyl]-3(2H)-pyridazinone], the melting point lay within 93 to 96 °C.

On to `Cc1n[nH]c(=O)c(-c2ccc(F)cc2)c1-c1ccc(S(C)(=O)=O)cc1` [Example 63, 4-(4-Fluorophenyl)-5-[4-(methylsulfonyl)phenyl]-6-methyl-3(2H)-pyridazinone], for which the melting point was 290 °C (dec.).

Compound `NS(=O)(=O)c1ccc(-c2cnn(CC(F)(F)F)c(=O)c2Oc2ccc(F)cc2)cc1` [Example 71, 2-(2,2,2-Trifluoroethyl)-4-(4-fluorophenoxy)-5-[4-(aminosulfonyl)phenyl]-3(2H)-pyridazinone] showed a melting point of 150 to 152 °C.

The compound `CS(=O)(=O)c1ccc(-c2cnn(Cc3ccccc3)c(=O)c2Cl)cc1` [Example 78, 2-Benzyl-4-chloro-5-[4-(methylsulfonyl)phenyl]-3(2H)-pyridazinone] had a melting point of 166 to 167 °C.

With `Cc1ccc(-c2c(-c3ccc(S(C)(=O)=O)cc3)cnn(CC(F)(F)F)c2=O)cc1` [Example 79, 2-(2,2,2-Trifluoroethyl)-4-(4-methylphenyl)-5-[4-(methylsulfonyl)phenyl]-3(2H)-pyridazinone], the melting point lay in the range of 154 to 156 °C.

The compound `Cc1ccsc1-n1ncc(-c2ccc(S(C)(=O)=O)cc2)c(-c2ccc(F)cc2)c1=O` [Example 95, 2-(3-Methyl-2-thienyl)-4-(4-fluorophenyl)-5-[4-(methylsulfonyl)phenyl]-3(2H)-pyridazinone] gave a melting point of 215 to 217 °C.

The compound `CS(=O)(=O)c1ccc(-c2cnn(-c3cccc(C(F)(F)F)c3)c(=O)c2-c2ccc(Cl)cc2)cc1` [Example 101, 2-(3-Trifluoromethylphenyl)-4-(4-chlorophenyl)-5-[4-(methylsulfonyl)phenyl]-3(2H)-pyridazinone] yielded a melting point of 103 to 105 °C.

As to `CS(=O)(=O)c1ccc(-c2cnn(Cc3cccc([N+](=O)[O-])c3)c(=O)c2-c2ccc(F)cc2)cc1` [Example 116, 2-(3-Nitrobenzyl)-4-(4-fluorophenyl)-5-[4-(methylsulfonyl)phenyl]-3(2H)-pyridazinone], the melting point is 156 to 157 °C.

Turning to `NS(=O)(=O)c1ccc(-c2cnn(C3CC=CCC3)c(=O)c2-c2ccc(F)cc2)cc1` (centres unmarked) [Example 126], the melting point lay in the range of 206 to 208 °C.

`CC1CCCC1n1ncc(-c2ccc(S(C)(=O)=O)cc2)c(-c2ccc(F)cc2)c1=O` (centres unmarked) [Example 131, 2-(2-Methylcyclopentyl)-4-(4-fluorophenyl)-5-[4-(methylsulfonyl)phenyl]-3(2H)-pyridazinone]: the melting point was in the range of 180 to 181 °C.

`NS(=O)(=O)c1ccc(-c2cnn(Cc3c(F)cc(F)cc3F)c(=O)c2-c2ccc(F)cc2)cc1` [Example 151, 2-(2,4,6-Trifluorobenzyl)-4-(4-fluorophenyl)-5-[4-(aminosulfonyl)phenyl]-3(2H)-pyridazinone]: the melting point lay within 201 to 203 °C.

With `CS(=O)(=O)c1ccc(-c2cnn(-c3ccc([N+](=O)[O-])cc3)c(=O)c2-c2ccc(F)cc2)cc1` [Example 157, 2-(4-Nitrophenyl)-4-(4-fluorophenyl)-5-[4-(methylsulfonyl)phenyl]-3(2H)-pyridazinone], the melting point was in the range of 110 to 116 °C.

The compound `CC(C)(C)c1ccc(-n2ncc(-c3ccc(S(C)(=O)=O)cc3)c(-c3ccc(F)cc3)c2=O)cc1` [Example 159, 2-(4-t-Butylphenyl)-4-(4-fluorophenyl)-5-[4-(methylsulfonyl)phenyl]-3(2H)-pyridazinone] yielded a melting point of 132 to 136 °C.

For `CS(=O)(=O)c1ccc(-c2cnn(-c3ccccc3C=O)c(=O)c2-c2ccc(F)cc2)cc1` [Example 163, 2-(2-Formylphenyl)-4-(4-fluorophenyl)-5-[4-(methylsulfonyl)phenyl]-3(2H)-pyridazinone], the melting point lay within 234 to 236 °C.

The compound `Cc1cc(C)cc(-n2ncc(-c3ccc(S(C)(=O)=O)cc3)c(-c3ccc(F)cc3)c2=O)c1` [Example 170, 2-(3,5-Dimethylphenyl)-4-(4-fluorophenyl)-5-[4-(methylsulfonyl)phenyl]-3(2H)-pyridazinone] yielded a melting point of 130 to 134 °C.

Consider `CS(=O)(=O)c1ccc(-c2cnn(-c3ccc(C(F)(F)F)cc3)c(=O)c2-c2ccc(F)cc2)cc1` [Example 174, 2-(4-Trifluoromethylphenyl)-4-(4-fluorophenyl)-5-[4-(methylsulfonyl)phenyl]-3(2H)-pyridazinone], for which the melting point lay in the range of 171 to 173 °C.

With `Cc1ccc(-n2ncc(-c3ccc(S(C)(=O)=O)cc3)c(-c3ccc(F)cc3)c2=O)cc1` [Example 177, 2-(4-Methylphenyl)-4-(4-fluorophenyl)-5-[4-(methylsulfonyl)phenyl]-3(2H)-pyridazinone], the melting point is 190 to 192 °C.

On to `CS(=O)(=O)c1ccc(-c2cnn(-c3ccsc3)c(=O)c2-c2ccc(F)cc2)cc1` [Example 179, 2-(3-Thienyl)-4-(4-fluorophenyl)-5-[4-(methylsulfonyl)phenyl]-3(2H)-pyridazinone], for which the melting point lay in the range of 200 to 202 °C.

Regarding `COc1ccc(-n2ncc(-c3ccc(S(C)(=O)=O)cc3)c(-c3ccc(F)cc3)c2=O)cc1F` [Example 184, 2-(3-Fluoro-4-methoxyphenyl)-4-(4-fluorophenyl)-5-[4-(methylsulfonyl)phenyl]-3(2H)-pyridazinone], the melting point is 97 to 101 °C.

Consider `CS(=O)(=O)c1ccc(-c2cnn(-c3ccc(S(N)(=O)=O)cc3)c(=O)c2-c2ccc(F)cc2)cc1` [Example 186, 2-[4-(Aminosulfonyl)phenyl]-4-(4-fluorophenyl)-5-[4-(methylsulfonyl)phenyl]-3(2H)-pyridazinone], for which the melting point was in the range of 213 to 216 °C.

Compound `CS(=O)(=O)c1ccc(-c2cnn(-c3ccc(F)cc3)c(=O)c2COc2ccccc2)cc1` [Example 196, 2-(4-Fluorophenyl)-4-phenoxymethyl-5-[4-(methylsulfonyl)phenyl]-3(2H)-pyridazinone] came in with a melting point of 42 to 75 °C.

In turn, `CC(C)(C)SCc1c(-c2ccc(S(C)(=O)=O)cc2)cnn(-c2ccc(F)cc2)c1=O` [Example 197, 2-(4-Fluorophenyl)-4-(t-butylthiomethyl)-5-[4-(methylsulfonyl)phenyl]-3(2H)-pyridazinone] registered a melting point of 50 to 70 °C.
